Results reported in patent US20260022143A1, “Cyclic Peptide Inhibitors of IL-23” (JANSSEN PHARMACEUTICA NV, priority 2022, published 2026).
Starred links: 1 amine or outer side, 2 acyl side, 3 side chain; linkers in the order of their positions; H or OH if unused. Positions of bridges follow the written chain, without caps; N, C: chain ends. Non-standard residues stand in square brackets, D forms with d. Residues, ends and D or L forms follow the SMILES beside them. ξ: configuration not given here. *: point of attachment. Trp(7-(3-AcNH-Ph)) = CC(=O)Nc1cccc(-c2cccc3c(C[C@H](N)C(=O)O)c[nH]c23)c1; X41 = C[N+]1(CCCCCCCc2cn(-c3ccc(C[C@H](N[*:1])C(=O)[*:2])cc3)nn2)CCOCC1; Me3N+(CH2)2O(CH2)2O(CH2)2CO = C[N+](C)(C)CCOCCOCCC(=O)*; CH2CH2OCH2CH2OCH2CH2NMe3+ = C[N+](C)(C)CCOCCOCC*; Trp(7-Me) = Cc1cccc2c(C[C@H](N)C(=O)O)c[nH]c12; Abu(4-yl) = O=C([C@H](CC[*:3])N[*:1])[*:2]; Hexanoyl(6-NMe3+) = C[N+](C)(C)CCCCCC(=O)*; X63 = C[N+]1(C)CCC(N[*:1])(C(=O)[*:2])CC1; X1 = CN(CC[C@H](N[*:1])C(=O)[*:2])[*:3]; 2Nal = N[C@@H](Cc1ccc2ccccc2c1)C(=O)O; AEF = NCCOc1ccc(C[C@H](N)C(=O)O)cc1; 3Pal = N[C@@H](Cc1cccnc1)C(=O)O; Lys(Me) = CNCCCC[C@H](N)C(=O)O; X5 = C[N+](C)(C)CCOCCOCC(=O)*; Pen = CC(C)(S)[C@H](N)C(=O)O; ξLys(Me) = CNCCCCC(N)C(=O)O; X57 = C[N+]1(C)CCC(CC*)CC1; Thp = NC1(C(=O)O)CCOCC1; X17 = C[N+]1(CC*)CCOCC1; X3 = C[N+](C)(C)CCCCC*; Me2NCH2CH2 = CN(C)CC*; Sar = CNCC(=O)O

Key:
IL-23R = target: T1, IL-23R (Homo sapiens, UniProt Q5VWK5); test: IL23R Reporter Assay; format: cell-based; details: HEK293 cells containing IL-23R, IL-12RP1 and STAT-inducible firefly luciferase reporter; 10 ng/mL IL-23 (EC90); 5 h at 37° C.; read-out: IL23R Reporter Assay
T1 construct: host or cells: HEK293
T1 sequence (Q5VWK5 24-629): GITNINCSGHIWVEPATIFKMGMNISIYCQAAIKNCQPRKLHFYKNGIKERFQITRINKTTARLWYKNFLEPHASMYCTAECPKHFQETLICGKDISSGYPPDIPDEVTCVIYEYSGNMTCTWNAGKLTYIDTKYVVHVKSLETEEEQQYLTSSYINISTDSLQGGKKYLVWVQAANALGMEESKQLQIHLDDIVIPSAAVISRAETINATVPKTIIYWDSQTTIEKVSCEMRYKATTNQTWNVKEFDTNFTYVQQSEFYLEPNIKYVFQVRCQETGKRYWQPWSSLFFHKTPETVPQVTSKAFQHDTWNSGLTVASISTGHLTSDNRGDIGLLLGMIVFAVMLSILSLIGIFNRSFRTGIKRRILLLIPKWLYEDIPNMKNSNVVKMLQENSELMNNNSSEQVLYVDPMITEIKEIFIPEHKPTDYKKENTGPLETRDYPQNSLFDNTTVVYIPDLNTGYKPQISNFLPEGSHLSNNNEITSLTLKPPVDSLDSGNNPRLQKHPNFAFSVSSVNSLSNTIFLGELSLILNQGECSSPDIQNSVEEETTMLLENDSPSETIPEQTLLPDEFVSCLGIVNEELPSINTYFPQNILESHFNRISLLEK

[1] = Exposed Polar Surface Area (EPSA); format: physicochemical; details: SFC on Chirex 3014 column; sample 1 mM DMSO stock; read-out: EPSA
How it was run: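 SFC retention on a Chirex 3014 (S-valine/(R)-1-(α-naphthyl)ethylamine) column at 35 °C, 4 mL/min, 14 MPa outlet, 5–60% methanol/20 mM ammonium formate gradient in CO2. Retention times converted to EPSA (Å²) via linear calibration with 8 standards; samples from 1 mM DMSO stock, run in duplicate.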

| IC50 (IL-23R) | EPSA [1] | SMILES |
| --- | --- | --- |
| 86 nM | 137 A^2 | CC(=O)N(C)CCCC[C@@H]1NC(=O)[C@H](Cc2c[nH]c3c(C)cccc23)NC(=O)[C@H]([C@@H](C)O)NC(=O)[C@H](CC(=O)N(C)C)NC(=O)[C@@H](NC(=O)CCOCCOCC[N+](C)(C)C)C(C)(C)SSC(C)(C)[C@@H](C(=O)N[C@@H](Cc2ccc(OCCC3CC[N+](C)(C)CC3)cc2)C(=O)N[C@@H](Cc2ccc3ccccc3c2)C(=O)NC2(C(=O)N[C@@H](CCCCN(C)C(C)=O)C(=O)N[C@@H](CC(N)=O)C(=O)N[C@@H](Cc3cccnc3)C(=O)N(C)CC(=O)N(C)C)CCOCC2)NC1=O [compound 187, cPEG3aCO-Pen(3)-N(N(Me)2)-T-7MeW-K(NMeAc)-Pen(3)-4DMPEF-2Nal-THP-K(NMeAc)-N-3Pya-Sar-CON(Me)2] ({Me3N+(CH2)2O(CH2)2O(CH2)2CO}-[Pen]D(NMe2)T[Trp(7-Me)][Lys(Me)](Ac)[Pen]Y(X57)[2Nal][Thp][Lys(Me)](Ac)N[3Pal][Sar]-NMe2; disulfide 1-6) |
| 1.2 nM | 168 A^2 | CC(=O)Nc1cccc(-c2cccc3c(C[C@@H]4NC(=O)[C@H]([C@@H](C)O)NC(=O)[C@H](CC(=O)N(C)C)NC(=O)[C@@H](NC(=O)CCOCCOCC[N+](C)(C)C)C(C)(C)SSC(C)(C)[C@@H](C(=O)N[C@@H](Cc5ccc(OCC[N+]6(C)CCOCC6)cc5)C(=O)N[C@@H](Cc5ccc6ccccc6c5)C(=O)NC5(C(=O)N[C@@H](CCCCN(C)C(C)=O)C(=O)N[C@@H](CC(N)=O)C(=O)N[C@@H](Cc6cccnc6)C(=O)N(C)CC(=O)N(C)C)CCOCC5)NC(=O)[C@H](CCCCN(C)C(C)=O)NC4=O)c[nH]c23)c1 [compound 421, cPEG3aCO-Pen(3)-N(N(me)2)-T-7(3NAcPh)W-K(NMeac)-Pen(3)-MMoEF-2Nal-THP-K(NMeAc)-N-3Pya-Sar-CON(Me)2] ({Me3N+(CH2)2O(CH2)2O(CH2)2CO}-[Pen]D(NMe2)T[Trp(7-(3-AcNH-Ph))][Lys(Me)](Ac)[Pen]Y(X17)[2Nal][Thp][Lys(Me)](Ac)N[3Pal][Sar]-NMe2; disulfide 1-6 (inferred)) |
| 3.1 nM | 163 A^2 | CC(=O)N(C)CCCC[C@@H]1NC(=O)[C@H](Cc2c[nH]c3c(C)cccc23)NC(=O)[C@H]([C@@H](C)O)NC(=O)[C@H](CC(=O)N(C)C)NC(=O)[C@@H](NC(=O)CCOCCOCC[N+](C)(C)C)C(C)(C)SSC(C)(C)[C@@H](C(=O)N[C@@H](Cc2ccc(OCCCCC[N+](C)(C)C)cc2)C(=O)N[C@@H](Cc2ccc3ccccc3c2)C(=O)NC2(C(=O)N[C@@H](CCCCN(C)C(C)=O)C(=O)N[C@@H](CC(N)=O)C(=O)N[C@@H](Cc3cccnc3)C(=O)N(C)CC(=O)N(C)C)CCOCC2)NC1=O [compound 484, cPEG3aCO-C(3)-N(N(Me)2)-T-7MeW-K(NMeAc)-Pen(3)-TMAPF-2Nal-THP-K(NMeAc)-N-3Pya-Sar-CON(Me)2] ({Me3N+(CH2)2O(CH2)2O(CH2)2CO}-[Pen]D(NMe2)T[Trp(7-Me)][Lys(Me)](Ac)[Pen]Y(X3)[2Nal][Thp][Lys(Me)](Ac)N[3Pal][Sar]-NMe2; disulfide 1-6) |
| > 2590 nM | 155 A^2 | CC(=O)N(C)CCCCC(NC(=O)C1(NC(=O)[C@H](Cc2ccc3ccccc3c2)NC(=O)[C@H](Cc2ccc(OCCOCCOCC[N+](C)(C)C)cc2)NC(=O)[C@@H]2CSCC[C@H](NC(=O)CCOCCOCC[N+](C)(C)C)C(=O)N[C@@H](CC(=O)N(C)C)C(=O)N[C@@H]([C@@H](C)O)C(=O)N[C@@H](Cc3c[nH]c4c(C)cccc34)C(=O)N[C@@H](CCCCN(C)C(C)=O)C(=O)N2)CCOCC1)C(=O)N[C@@H](CC(N)=O)C(=O)N[C@@H](C)C(=O)N(C)CC(=O)N(C)C (stereo partly drawn) [compound 476, cPEG3aCO-Abu(1)-N(N(Me)2)-T-7MeW-K(NMeAc)-C(1)-APEG3F-2Nal-THP-K(NMeAc)-N-A-Sar-CON(Me)2] ({Me3N+(CH2)2O(CH2)2O(CH2)2CO}-[Abu(4-yl)]D(NMe2)T[Trp(7-Me)][Lys(Me)](Ac)CY(CH2CH2OCH2CH2OCH2CH2NMe3+)[2Nal][Thp][ξLys(Me)](Ac)NA[Sar]-NMe2; thioether 1-6) |
| 9.3 nM | 139 A^2 | Cc1cccc2c(C[C@@H]3NC(=O)[C@H]([C@@H](C)O)NC(=O)[C@H](CC(=O)N(C)C)NC(=O)[C@@H](NC(=O)CCCCC[N+](C)(C)C)C(C)(C)SSC(C)(C)[C@@H](C(=O)N[C@@H](Cc4ccc(OCCN(C)C)cc4)C(=O)N[C@@H](Cc4ccc5ccccc5c4)C(=O)NC4(C(=O)N[C@@H](CCC(=O)N(C)C)C(=O)N[C@@H](CC(N)=O)C(=O)N[C@@H](Cc5cccnc5)C(=O)N(C)CC(=O)N(C)C)CC[N+](C)(C)CC4)NC(=O)[C@H](CCC(=O)N(C)C)NC3=O)c[nH]c12 [compound 100, 5cpaCO-Pen(3)-N(N(Me)2)-T-7MeW-Q(N(Me)2)-Pen(3)-AEF(N(Me)2)-2Nal-Pip(NMe2)-Q(N(Me)2)-N-3Pya-Sar-CON(Me)2] ({Hexanoyl(6-NMe3+)}-[Pen]D(NMe2)T[Trp(7-Me)]E(NMe2)[Pen]Y(Me2NCH2CH2)[2Nal][X63]E(NMe2)N[3Pal][Sar]-NMe2; disulfide 1-6) |
| 3.4 nM | 164 A^2 | CC(=O)N[C@@H]1C(=O)N[C@@H](CC(=O)N(C)C)C(=O)N[C@@H]([C@@H](C)O)C(=O)N[C@@H](Cc2c[nH]c3c(C)cccc23)C(=O)N[C@@H](CCN(C)C(=O)COCCOCC[N+](C)(C)C)C(=O)N[C@H](C(=O)N[C@@H](Cc2ccc(OCCN)cc2)C(=O)N[C@@H](Cc2ccc3ccccc3c2)C(=O)NC2(C(=O)N[C@@H](CCC(=O)O)C(=O)N[C@@H](CC(N)=O)C(=O)N[C@@H](Cc3cccnc3)C(=O)N(C)CC(=O)N(C)C)CCOCC2)C(C)(C)SSC1(C)C [compound 130, MeCO-Pen(3)-N(N(Me)2)-T-7MeW-Dab(NMecPEG2a)-Pen(3)-AEF-2Nal-THP-E-N-3Pya-Sar-CON(Me)2] (Ac-[Pen]D(NMe2)T[Trp(7-Me)][X1](X5)[Pen][AEF][2Nal][Thp]EN[3Pal][Sar]-NMe2; disulfide 1-6) |
| > 16600 nM | 139 A^2 | CC(=O)N(C)CCCC[C@@H]1NC(=O)[C@H](C)NC(=O)[C@H]([C@@H](C)O)NC(=O)[C@H](CC(=O)N(C)C)NC(=O)[C@@H](NC(=O)CCOCCOCC[N+](C)(C)C)C(C)(C)SSC(C)(C)[C@@H](C(=O)N[C@@H](Cc2ccc(OCCOCCOCC[N+](C)(C)C)cc2)C(=O)N[C@@H](C)C(=O)NC2(C(=O)N[C@@H](CCCCN(C)C(C)=O)C(=O)N[C@@H](CC(N)=O)C(=O)N[C@@H](Cc3cccnc3)C(=O)N(C)CC(=O)N(C)C)CCOCC2)NC1=O [compound 557, cPEG3aCO-Pen(3)-N(N(Me)2)-T-A-K(NMeAc)-Pen(3)-APEG3F-A-THP-K(NMeAc)-N-3Pya-Sar-CON(Me)2] ({Me3N+(CH2)2O(CH2)2O(CH2)2CO}-[Pen]D(NMe2)TA[Lys(Me)](Ac)[Pen]Y(CH2CH2OCH2CH2OCH2CH2NMe3+)A[Thp][Lys(Me)](Ac)N[3Pal][Sar]-NMe2; disulfide 1-6) |
| 3.4 nM | 158 A^2 | CC(=O)N(C)CCCC[C@@H]1NC(=O)[C@H](Cc2c[nH]c3c(C)cccc23)NC(=O)[C@H]([C@@H](C)O)NC(=O)[C@H](CC(=O)N(C)C)NC(=O)[C@@H](NC(=O)CCOCCOCC[N+](C)(C)C)C(C)(C)SSC(C)(C)[C@@H](C(=O)N[C@@H](Cc2ccc(-n3cc(CCCCCCC[N+]4(C)CCOCC4)nn3)cc2)C(=O)N[C@@H](Cc2ccc3ccccc3c2)C(=O)NC2(C(=O)N[C@@H](CCCCN(C)C(C)=O)C(=O)N[C@@H](CC(N)=O)C(=O)N[C@@H](Cc3cccnc3)C(=O)N(C)CC(=O)N(C)C)CCOCC2)NC1=O [compound 479, cPEG3aCO-Pen(3)-N(N(Me)2)-T-7MeW-K(NMeAc)-Pen(3)-F(4TzIMMo7)-2Nal-THP-K(NMeAc)-N-3Pya-Sar-CON(Me)2] ({Me3N+(CH2)2O(CH2)2O(CH2)2CO}-[Pen]D(NMe2)T[Trp(7-Me)][Lys(Me)](Ac)[Pen][X41][2Nal][Thp][Lys(Me)](Ac)N[3Pal][Sar]-NMe2; disulfide 1-6) |
| 27 nM | 162 A^2 | CC(=O)N(C)CCCC[C@@H]1NC(=O)[C@H](Cc2c[nH]c3c(C)cccc23)NC(=O)[C@H]([C@@H](C)O)NC(=O)[C@H](CC(=O)N(C)C)NC(=O)[C@@H](NC(=O)CCOCCOCC[N+](C)(C)C)C(C)(C)SSC(C)(C)[C@@H](C(=O)N[C@@H](Cc2ccc(OCCCCC[N+](C)(C)C)cc2)C(=O)N[C@@H](Cc2ccccc2)C(=O)NC2(C(=O)N[C@@H](CCCCN(C)C(C)=O)C(=O)N[C@@H](CC(N)=O)C(=O)N[C@@H](Cc3cccnc3)C(=O)N(C)CC(=O)N(C)C)CCOCC2)NC1=O [compound 498, cPEG3aCO-Pen(3)-N(N(Me)2)-T-7MeW-K(NMeAc)-Pen(3)-TMApF-F-THP-K(NMeAc)-N-3Pya-Sar-CON(Me)2] ({Me3N+(CH2)2O(CH2)2O(CH2)2CO}-[Pen]D(NMe2)T[Trp(7-Me)][Lys(Me)](Ac)[Pen]Y(X3)F[Thp][Lys(Me)](Ac)N[3Pal][Sar]-NMe2; disulfide 1-6) |
